Data: patent publication US20210254056A1, “IDENTIFICATION AND TARGETED MODULATION OF GENE SIGNALING NETWORKS” (CAMP4 THERAPEUTICS CORPORATION, priority 2017, published 2021)

Test system: hepatocytes
Test: RNA-seq of hepatocytes treated with Phase III failure compounds
Details: hepatocytes
Protocol: RNA-seq was performed to determine the effects of the compounds on hepatocytes.
Significance was determined by the criteria of FPKM≥0.5, a log 2(fold-change)≥1, and a […].

CCC(CC)[C@H](NC(C)=O)[C@@H]1[C@H](O)[C@@H](C(=O)O)C[C@H]1NC(=N)N.O.O.O [peramivir (trihydrate), peramivir]
RNA-seq results: MCCC1 expression (gene MCCC1): −0.27
RNA-seq results: MCCC2 expression (gene MCCC2): −0.31
RNA-seq results: MCM6 expression (gene MCM6): −0.34
RNA-seq results: MEN1 expression (gene MEN1): 0.18
RNA-seq results: MET expression (gene MET): −0.27
RNA-seq results: MGAT2 expression (gene MGAT2): −0.09
RNA-seq results: MKS1 expression (gene MKS1): 0.23
RNA-seq results: MLH1 expression (gene MLH1): −0.18
RNA-seq results: MMAA expression (gene MMAA): −0.25
RNA-seq results: MMAB expression (gene MMAB): −0.09
RNA-seq results: MMADHC expression (gene MMADHC): −0.38
RNA-seq results: MOCS1 expression (gene MOCS1): 0.03
RNA-seq results: MOGAT2 expression (gene MOGAT2): 0.66
RNA-seq results: MOGS expression (gene MOGS): 0.33
RNA-seq results: MPZ expression (gene MPZ): 0.37
RNA-seq results: MRPL3 expression (gene MRPL3): −0.47
RNA-seq results: MTHFR expression (gene MTHFR): 0.37
RNA-seq results: MTM1 expression (gene MTM1): −0.29
RNA-seq results: MTO1 expression (gene MTO1): −0.13
RNA-seq results: MTR expression (gene MTR): 0.10
RNA-seq results: MTRR expression (gene MTRR): −0.43
RNA-seq results: MTTP expression (gene MTTP): −0.18
RNA-seq results: MVK expression (gene MVK): 0.07
RNA-seq results: MYH9 expression (gene MYH9): 0.20
RNA-seq results: MYO5B expression (gene MYO5B): −0.08
RNA-seq results: NAGS expression (gene NAGS): 0.31
RNA-seq results: NARS2 expression (gene NARS2): −0.42
RNA-seq results: NAT2 expression (gene NAT2): −0.40
RNA-seq results: NBAS expression (gene NBAS): −0.22
RNA-seq results: NCF2 expression (gene NCF2): −0.20
RNA-seq results: NEK1 expression (gene NEK1): −0.22
RNA-seq results: NEK8 expression (gene NEK8): 0.47
RNA-seq results: NEU1 expression (gene NEU1): −0.25
RNA-seq results: NFKB2 expression (gene NFKB2): 0.30
RNA-seq results: NFKBIA expression (gene NFKBIA): −0.19
RNA-seq results: NFU1 expression (gene NFU1): −0.52
RNA-seq results: NGLY1 expression (gene NGLY1): −0.40
RNA-seq results: NHP2 expression (gene NHP2): 0.65
RNA-seq results: NME1 expression (gene NME1): 0.00
RNA-seq results: NOD2 expression (gene NOD2): 0.30
RNA-seq results: NOP10 expression (gene NOP10): 0.03
RNA-seq results: NOTCH1 expression (gene NOTCH1): 0.23
RNA-seq results: NOTCH2 expression (gene NOTCH2): 0.01
RNA-seq results: NPC1 expression (gene NPC1): −0.09
RNA-seq results: NR1H4 expression (gene NR1H4): 0.00
RNA-seq results: NUBPL expression (gene NUBPL): −0.11
RNA-seq results: NUDT7 expression (gene NUDT7): −0.70
RNA-seq results: NUDT12 expression (gene NUDT12): −0.32
RNA-seq results: OAT expression (gene OAT): −0.40
RNA-seq results: OPA3 expression (gene OPA3): 0.14
RNA-seq results: OTC expression (gene OTC): −0.33
RNA-seq results: PAF1 expression (gene PAF1): −0.04
RNA-seq results: PAH expression (gene PAH): −0.22
RNA-seq results: PANK2 expression (gene PANK2): −0.22
RNA-seq results: PAOX expression (gene PAOX): −0.04
RNA-seq results: PC expression (gene PC): 0.27
RNA-seq results: PCCA expression (gene PCCA): −0.23
RNA-seq results: PCK2 expression (gene PCK2): 0.18
RNA-seq results: PCSK9 expression (gene PCSK9): 0.46
RNA-seq results: PCYT1A expression (gene PCYT1A): −0.07
RNA-seq results: PDGFRA expression (gene PDGFRA): −0.06
RNA-seq results: PDP1 expression (gene PDP1): −0.30
RNA-seq results: PEPD expression (gene PEPD): 0.03
RNA-seq results: PEX11A expression (gene PEX11A): −0.27
RNA-seq results: PEX12 expression (gene PEX12): −0.20
RNA-seq results: PEX14 expression (gene PEX14): 0.19
RNA-seq results: PFKM expression (gene PFKM): 0.45
RNA-seq results: PGM1 expression (gene PGM1): −0.24
RNA-seq results: PHGDH expression (gene PHGDH): 0.38
RNA-seq results: PHKA1 expression (gene PHKA1): −0.18
RNA-seq results: PHKA2 expression (gene PHKA2): 0.11
RNA-seq results: PHKB expression (gene PHKB): −0.39
RNA-seq results: PHYH expression (gene PHYH): −0.26
RNA-seq results: PIEZO1 expression (gene PIEZO1): 0.30
RNA-seq results: PIGA expression (gene PIGA): −0.37
RNA-seq results: PIGM expression (gene PIGM): −0.35
RNA-seq results: PKD1 expression (gene PKD1): 0.61
RNA-seq results: PKD2 expression (gene PKD2): 0.28
RNA-seq results: PKHD1 expression (gene PKHD1): 0.34
RNA-seq results: PKLR expression (gene PKLR): 0.35
RNA-seq results: PLA2G6 expression (gene PLA2G6): 0.59
RNA-seq results: PLEKHM1 expression (gene PLEKHM1): 0.10
RNA-seq results: PMVK expression (gene PMVK): 0.39
RNA-seq results: PNP (gene PNP): −0.40
RNA-seq results: PNPLA2 (gene PNPLA2): 0.02
RNA-seq results, POLD1 (gene POLD1): 0.24
RNA-seq results: POLD1 (gene POLD1): 0.30
RNA-seq results, POLG2 (gene POLG2): 0.19
RNA-seq results: POLG2 (gene POLG2): 0.22
RNA-seq results, POLG (gene POLG): 0.03
RNA-seq results: POLG (gene POLG): 0.10
RNA-seq results, POR (gene POR): 0.82
RNA-seq results: POR (gene POR): 0.16
RNA-seq results, PPAPDC2 (gene PPAPDC2): −0.01
RNA-seq results: PPAPDC2 (gene PPAPDC2): −0.14
RNA-seq results, PPARA (gene PPARA): 0.09
RNA-seq results: PPARA (gene PPARA): −0.14
RNA-seq results, PPARG (gene PPARG): 0.16
RNA-seq results: PPARG (gene PPARG): −0.47
RNA-seq results, PPM1K (gene PPM1K): 0.13
RNA-seq results: PPM1K (gene PPM1K): −0.24
RNA-seq results, PRKCD (gene PRKCD): 0.03
RNA-seq results: PRKCD (gene PRKCD): 0.06
RNA-seq results, PRODH (gene PRODH): 0.2
RNA-seq results: PRODH (gene PRODH): −0.14
RNA-seq results, PROS1 (gene PROS1): −0.19
RNA-seq results: PROS1 (gene PROS1): −0.20
RNA-seq results, PROZ (gene PROZ): 0.28
RNA-seq results: PROZ (gene PROZ): 0.10
RNA-seq results, PSAT1 (gene PSAT1): 0.26
RNA-seq results: PSAT1 (gene PSAT1): −0.18
RNA-seq results, PSMB8 (gene PSMB8): 0.02
RNA-seq results: PSMB8 (gene PSMB8): 0.08
RNA-seq results, PSPH (gene PSPH): 0.05
RNA-seq results: PSPH (gene PSPH): −0.12
RNA-seq results, PTCH1 (gene PTCH1): 0.28
RNA-seq results: PTCH1 (gene PTCH1): 0.20
RNA-seq results, PTRF (gene PTRF): −0.15
RNA-seq results: PTRF (gene PTRF): 0.25
